From US9962341B2, “Active pharmaceutical ingredient (API) comprising cannabinoids for use in the treatment of cancer” (GW Pharma Limited, priority 2014, dated 2018)
Like-named read-outs stand apart in the source and are kept apart here.

System: MDA-MB-231
Test: Cell viability (CellTiter-Blue, 72 h), MDA-MB-231 breast cancer cells
Type: cell-based
Settings: for IC50: Homo sapiens; for effect (but only 50% effect): extent of effect reached
Experimental: The cell lines tested in this Example were as follows. Breast cancer: MDA-MB-231; SK-BR3; and BT474. Liver cancer: HepG2.
The phytocannabinoids were tested alone and in various ratioed combinations in media containing final concentrations of 10% and 1% foetal bovine serum at 72 h for the breast and prostate cancer lines and 1% foetal bovine serum for the liver cancer line HepG2.
Each tumour cell line was maintained in vitro in RPMI 1640+10% heat inactivated FBS and 2 mM L-glutamine (growth media) at 37° C. in 5% CO2 and humidified conditions. The cells were harvested, washed, re-suspended into growth medium and counted. The cells were re-suspended into assay media (RPMI 1640+5% heat inactivated FBS+ and 2 mM L-glutamine) at 8×104-2×10^5 cells/ml (dependent upon cell type) and plated into the middle 240 wells of 384 well tissue culture plates (Corning CellBind, black-wall plates) 12.5 μl/well aliquots; 62.5 μl of growth media was aliquoted into the outer wells. There were 4 plates for each cell line. The plates were incubated overnight at 37° C., in 5% humidified CO2.
The phytocannabinoid test compounds were prepared in 100% DMSO vehicle at a stock concentration of 10 mM.
Starting with the 10 mM stock, the compounds were diluted to 125 μM in FBS-free growth media.
These were diluted in FBS-free growth media to 125 μM before serial dilution.
5 volumes of CBD 10 mM stock was added to 1 volume of the other agent (also at 10 mM) and 4 volumes of DMSO. This made a final concentration of 5 mM:1 mM. This was then diluted in FBS-free growth media so the top concentration of CBD would be 125 μM (before serial dilution). Each compound and compound combination stock was serially diluted in FBS-free growth media (containing 1.25% v/v DMSO) from 125 μM to 41.7, 13.89, 4.63, 1.54, 0.514, 0.171, 0.057 and 0.019 μM (1.25× final assay concentrations). Vehicle was prepared at equivalent dilutions in assay media. The top final concentration of compound in the assay was always 100 μM so CBD5:1CBG was 100 μM CBD and 20 μM CBG.
Taxotere SOC was prepared at a stock concentration of 1 mM in 100% DMSO. Taxotere was serially diluted from the stock solution into FBS-free growth media to 12.5 μM, then serially diluted in FBS-free growth media containing 1.25% DMSO to 4.17, 1.39, 0.46, 0.154, 0.051, 0.017, 0.006, 0.002 μM (1.25× final assay concentrations).
The plates were incubated for 72 h at 37° C. in 5% humidified CO2. To develop the plates, at 72 h, 10 μl of CellTiter-Blue™ reagent was added to each test/blank well. The plates were incubated at 37° C., 5% humidified CO2. Fluorescence was measured using a Flex II Station plate reader (570 nm excitation wavelength, 600 nm emission wavelength, 590 nm cut-off) after 3 h.
The experimental conditions were the same as the experiment above, with the same compound dilutions and volumes for plating but using growth media containing 10% FBS rather than FBS-free media.
The raw data values expressed in relative fluorescent units were normalised to the vehicle for each individual plate and any reduction in fluorescence indicated a decrease in viability.
The data were analysed in GraphPad PRISM using a non-linear sigmoidal plot with variable slope (asymmetric five point linear regression) and where possible an IC50 value for each single compound and combination was generated.
For the calculation, raw data values expressed in relative fluorescent units were normalised to the vehicle for each individual plate (set as 0%) and the reduction in fluorescence calculated as an increase in inhibition of viability.
The data was formatted in Excel for each assay plate so that the average effect at each concentration for each separate phytocannabinoid and each of the combinations could be determined.
The mean data at each concentration of CBD was imported into the analysis package Calcusyn. Calcusyn software was designed by M. Hayball and C.

[1] = MDA-MB-231, 72 h, read-out: IC50 values, MDA-MB-231, 1% FBS, 72 h
[2] = MDA-MB-231, 72 h, read-out: IC50 values, MDA-MB-231, 10% FBS, 72 h
[3] = MDA-MB-231, read-out: Dm (median effect dose), MDA-MB-231, 1% FBS, Calcusyn median-effect analysis

Structure (SMILES)	IC50 [1]	IC50 [2]	IC50 [3]	IC50 values (MDA-MB-231, 10% FBS, 72 h)	effect (but only 50% effect) (MDA-MB-231, 1% FBS)	effect (but only 50% effect) (MDA-MB-231, 10% FBS)
C=C(C)[C@@H]1CCC(C)=C[C@H]1c1c(O)cc(CCCCC)cc1O [CBD, Cannabidiol]	7.4 µM	27 µM	5.61 µM	–	–	–
C=C(C)[C@@H]1CCC(C)=C[C@H]1c1c(O)cc(CCCCC)c(C(=O)O)c1O [CBDA, Cannabidiolic acid]	30 µM	–	20 µM	NE at 100 μM	–	–
CCCCCc1cc(O)c(C/C=C(\C)CCC=C(C)C)c(O)c1 [CBG, Cannabigerol]	4.1 µM	29 µM	14.2 µM	–	–	–
CCCCCc1cc(O)c(C/C=C(\C)CCC=C(C)C)c(O)c1C(=O)O [CBGA, Cannabigerolic acid]	16 µM	~100 µM	43.5 µM	–	–	–
CCCc1cc(O)c2c(c1)OC(C)(C)[C@@H]1CCC(C)=C[C@@H]21 [THCV, Tetrahydrocannabivarin]	14.4 µM	36 µM	39 µM	–	–	–
CC(=O)O[C@@]12CO[C@@H]1C[C@H](O)[C@@]1(C)C(=O)[C@H](O)C3=C(C)[C@@H](OC(=O)[C@H](O)[C@@H](NC(=O)OC(C)(C)C)c4ccccc4)C[C@@](O)([C@@H](OC(=O)c4ccccc4)[C@H]21)C3(C)C [Taxotere, Docetaxel, reference compound]	< 0.001 µM	< 0.001 µM	–	–	only 50%	only 50%
